Tests used:
[1] = molecular target: T1, Pol theta (residues 1819-2590) (Homo sapiens, UniProt O75417); assay: PPi assay (inhibition of polymerase activity of Pol theta, PPiLite luminescence); assay type: biochemical; details: Pol theta 2.8 nM; luminescence kinetic mode 90 min
T1 construct: Pol theta polymerase domain (residues 1819-2590) at a final concentration of 4 nM
T1 sequence (O75417 1819-2590): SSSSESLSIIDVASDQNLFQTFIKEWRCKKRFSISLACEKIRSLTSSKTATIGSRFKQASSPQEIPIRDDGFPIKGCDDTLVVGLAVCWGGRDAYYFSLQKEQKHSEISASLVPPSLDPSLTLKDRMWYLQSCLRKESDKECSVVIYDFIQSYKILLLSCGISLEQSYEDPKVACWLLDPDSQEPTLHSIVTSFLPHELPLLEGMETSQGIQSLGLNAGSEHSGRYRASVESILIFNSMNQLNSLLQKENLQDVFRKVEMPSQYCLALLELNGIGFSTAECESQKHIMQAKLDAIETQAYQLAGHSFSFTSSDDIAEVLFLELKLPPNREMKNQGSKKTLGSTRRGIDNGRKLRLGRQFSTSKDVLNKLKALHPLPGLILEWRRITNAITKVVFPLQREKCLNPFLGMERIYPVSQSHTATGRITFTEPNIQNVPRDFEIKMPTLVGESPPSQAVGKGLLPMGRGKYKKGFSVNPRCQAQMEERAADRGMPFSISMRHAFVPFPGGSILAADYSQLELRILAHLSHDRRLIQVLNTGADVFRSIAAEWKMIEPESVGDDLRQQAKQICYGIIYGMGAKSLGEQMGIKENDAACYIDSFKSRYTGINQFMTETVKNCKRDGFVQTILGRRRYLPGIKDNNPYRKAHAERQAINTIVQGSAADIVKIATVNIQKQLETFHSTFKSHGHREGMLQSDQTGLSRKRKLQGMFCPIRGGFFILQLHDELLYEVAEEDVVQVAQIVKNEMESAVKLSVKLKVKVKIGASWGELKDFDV
Protocol: The ability of the compounds of Formula (I) or Formula (II) to inhibit polymerase activity of Pol theta was determined using the PPi assay as set forth below.
A mixture of template DNA strand (SEQ ID NO:4: 5′ ATTACTGACCTCATACTTCTGCCCTTCCATGTTCTGTGCCCTCCTTCC 3′) and primer DNA strand (SEQ ID NO:5: 5′ GGA AGG AGG GCA CAG AAC 3′) was annealed in 10 mM Tris-HCl pH 8.0, […] buffer to form the primed DNA substrate. A 10-point dilution series of compounds were used in a 384 well format for the inhibition assay. Pol theta (residues 1819-2590) (2.8 nM) in assay buffer (20 mM Tris-HCl pH 7.8, 50 mM KCl, 10 mM MgCl2, 1 mM DTT, 0.01% BSA, 0.01% Tween-20) was transferred to the test wells (10 uL), except for the low control wells. The plate was then incubated at room temperature for 15 mins. An equal volume (10 μL) of dNTP substrate (40 μM) and primed DNA substrate (800 nM) in assay buffer was added to all the test wells. 20 μL of PPi detection reagent (PPiLite inorganic pyrophosphate assay, Lonzo) was then added to all test wells. The plate was then centrifuged at 1000 rpm for 1 min. The reaction was monitored in a Tecan M1000 Pro plate reader in luminescence kinetic mode for 90 min. The high control (DMSO with enzyme) with high luminescence represents no inhibition of the polymerase reaction while the low control (DMSO with buffer) with low luminescence represents full inhibition of the polymerase activity. Slope of the reaction progress curves were used to calculate the rate of polymerization. The rates were used to determine the percent inhibition using a four-parameter inhibition model to generate IC50, Hill slope, maximum inhibition, and minimum inhibition.

[2] = molecular target: T2, Pol theta polymerase domain (residues 1819-2590) (Homo sapiens, UniProt O75417); assay: Primer extension assay (inhibition of polymerase activity of Pol theta, molecular beacon fluorescence); assay type: biochemical; details: Pol theta polymerase domain 4 nM; fluorescence change over 30 min
T2 construct: Pol theta polymerase domain (residues 1819-2590) at a final concentration of 4 nM
T2 sequence (O75417 1819-2590): T1 sequence (O75417 1819-2590)
Protocol: The ability of the compounds of Formula (I) or Formula (II) to inhibit polymerase activity of Pol theta was determined using the primer extension assay as set forth below.
A mixture of 20 uL of Pol theta polymerase domain (residues 1819-2590) at a final concentration of 4 nM in assay buffer (20 m M TRIS, pH 7.80, 50 mM KCl, 10 mM MgCl2, 1 mM DTT, 0.01% BSA, 0.01% Tween20) was added to test compounds (11-point dilution series of test compounds) except the low control wells without test compounds. The above enzyme and test compound inhibitor mixture was then incubated at room temperature for 15 min. An equal volume (20 μl) of dNTP substrate mixture (48 μM) and primed molecular beacon DNA (obtained by annealing template SEQ ID NO:2: (5′-CCTTCCTCCCGTGTCTTG-TACCTTCCCGTCA-GGAGGAAGG-3′) with 5′-TAMRA and 3′-BHQ and primer DNA (SEQ ID NO:3; 5′-GACGGGAAGG-3′) in 10 mM Tris-HCl pH 8.0, 100 mM NaCl buffer) (96 nM) in assay buffer was added to all the test wells. The inhibition activity was measured by monitoring the fluorescence change over 30 min at 535 nm upon excitation at 485 nm. The high control (DMSO with enzyme) with high fluorescence intensity represents no inhibition of polymerase reaction while the low control (DMSO with buffer) with low fluorescence intensity represents full inhibition of polymerase activity. Slope of the reaction progress curves were used to calculate the rate of polymerization. The rates were used to determine the percent inhibition using a four-parameter inhibition model to generate IC50, Hill slope and max inhibition.

Compound	IC50 [1] [nM]	IC50 [2] [nM]
CN(C(=O)[C@H]1CCCN1c1cc(C(F)(F)F)cc(C(F)(F)F)n1)c1ccc(F)cc1 [1.002, (R)-1-(4,6-bis(trifluoromethyl)pyridin-2-yl)-N-(4-fluorophenyl)-N-methylpyrrolidine-2-carboxamide]	1000 to 10000	1000 to 10000
CN(C(=O)[C@@H]1CCCN1c1cc(C(F)(F)F)cc(C(F)(F)F)n1)c1ccc(F)cc1 [1.003, (S)-1-(4,6-bis(trifluoromethyl)pyridin-2-yl)-N-(4-fluorophenyl)-N-methylpyrrolidine-2-carboxamide]	≤ 200	≤ 200
CN(C(=O)C1COCCN1c1cc(C(F)(F)F)cc(C(F)(F)F)n1)c1ccc(F)cc1 (centres unmarked) [1.006, 4-(4,6-bis(trifluoromethyl)pyridin-2-yl)-N-(4-fluorophenyl)-N-methylmorpholine-3-carboxamide]	1000 to 10000	≤ 200
CN(C(=O)[C@@H]1[C@@H](O)CCN1c1cc(C(F)(F)F)cc(C(F)(F)F)n1)c1ccc(F)cc1 [1.019, (2S,3S)-1-(4,6-bis(trifluoromethyl)pyridin-2-yl)-N-(4-fluorophenyl)-3-hydroxy-N-methylpyrrolidine-2-carboxamide]	≤ 200	≤ 200
CC(=O)N[C@H]1C[C@@H](C(=O)N(C)c2ccc(F)cc2)N(c2cc(C(F)(F)F)cc(C(F)(F)F)n2)C1 [1.020, (2S,4S)-4-acetamido-1-(4,6-bis(trifluoromethyl)pyridin-2-yl)-N-(4-fluorophenyl)-N-methylpyrrolidine-2-carboxamide]	≤ 200	≤ 200
CC(=O)N[C@@H]1C[C@@H](C(=O)N(C)c2ccc(F)cc2)N(c2cc(C(F)(F)F)cc(C(F)(F)F)n2)C1 [1.022, (2S,4R)-4-acetamido-1-(4,6-bis(trifluoromethyl)pyridin-2-yl)-N-(4-fluorophenyl)-N-methylpyrrolidine-2-carboxamide]	≤ 200	≤ 200
CN(C(=O)C1CCCN1c1nc(C(F)(F)F)cc(C(F)(F)F)c1C#N)c1ccc(F)cc1 (centres unmarked) [1.024, 1-(3-cyano-4,6-bis(trifluoromethyl)pyridin-2-yl)-N-(4-fluorophenyl)-N-methylpyrrolidine-2-carboxamide]	≤ 200	≤ 200
